Source: patent US10426753B2, “Supramolecular combinatorial therapeutics” (INVICTUS ONCOLOGY PVT. LTD., priority 2014, dated 2019)

Assays:
Type in all cases: cell-based
Settings in all cases: 48, 72 and 96 hrs, supramolecular taxane conjugate
[1] = tested on: MDA-MB-231; experiment: Cell viability assay (MTT), breast cancer cell line
Experimental: (§1) Mammalian cells were grown in specific culture media, supplemented with 10% fetal bovine serum (FBS) and antibiotics in a humidified environment containing 5% CO2 at 37° C.
(§2) The effects of supramolecular taxane conjugates on the viability of cancer cells were measured using MTT assay (^6,7,8). Cells in 100 μl culture-media were plated in 96-well plates (3000-5000 cells/well) and allowed to adhere overnight in a humidified environment containing 5% CO2 at 37° C. Fresh media (100 μL) containing different concentrations of compounds were added to cells and incubated for 48, 72 and 96 hrs. Following incubation, cell viability was determined using the MTT assay. Similar assay was performed on normal human epithelial cells seeded in 100 μl media in 96-well plate (5000-10,000 cells per well), under identical incubation time and dosage of compounds, used for cancer cells to determine the effect of this targeted therapy on normal cells. The cell viability was plotted as dose-response curves using curve fitting.
(§3) The effects of compounds (New taxane 2 and 16) were evaluated in vitro in comparison with standard taxanes in breast cancer (MDA-MB-231), ovarian cancer (SKOV-3), lung cancer (A549), prostate cancer (DU-145), and colorectal cancer (HCT-116) cell lines.

[2] = tested on: HCT-116; experiment: Cell viability assay (MTT), colorectal cancer cell line
Experimental: as §1, §2, §3

[3] = tested on: A549; experiment: Cell viability assay (MTT), lung cancer cell line
Experimental: as §1, §2, §3

[4] = tested on: SKOV-3; experiment: Cell viability assay (MTT), ovarian cancer cell line
Experimental: as §1, §2, §3

[5] = tested on: DU-145; experiment: Cell viability assay (MTT), prostate cancer cell line
Experimental: as §1, §2, §3

Measured: efficacy on cell viability versus standard taxanes

CO[C@H]1C(=O)[C@]2(C)[C@@H](OC)C[C@H]3OC[C@@]3(OC(C)=O)[C@H]2[C@H](OC(=O)c2ccccc2)[C@]2(O)C[C@H](OC(=O)[C@H](OC(=O)CCC(=O)NCC(=O)O[C@H]3CC[C@@]4(C)C(=CCC5C4CC[C@@]4(C)C5CC[C@@H]4[C@H](C)CCCC(C)C)C3)[C@@H](NC(=O)OC(C)(C)C)c3ccccc3)C(C)=C1C2(C)C (stereo partly shown) [compound 2]
comparable efficacy to standard taxanes: all assays above

CC(=O)O[C@H]1C(=O)[C@@]2(C)[C@H]([C@H](OC(=O)c3ccccc3)[C@]3(O)C[C@H](OC(=O)[C@H](OC(=O)CCC(=O)NCC(=O)O[C@H]4CC[C@@]5(C)C(=CCC6C5CC[C@@]5(C)C6CC[C@@H]5[C@H](C)CCCC(C)C)C4)[C@@H](NC(=O)c4ccccc4)c4ccccc4)C(C)=C1C3(C)C)[C@]1(OC(C)=O)CO[C@@H]1C[C@@H]2O (stereo partly shown) [compound 16]
comparable efficacy to standard taxanes: all assays above
